Structures can show the parent of a compound that is named as a salt.
How the values were obtained:
JH2 domain of human Tyk2 = target: T1, JH2 domain of human Tyk2 (Homo sapiens, UniProt P29597); experiment: JH2 biochemical assay (TR-FRET probe displacement); type: binding; conditions: JH2 biochemical assay
T1 construct: 10×His-tagged TYK2 JH2 domain (amino acid 575-876)
Method in brief: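 A probe-displacement TR-FRET readout: compounds, tested in 3-fold, 10-point dilutions starting at […], compete with 2 nM tracer for 2 nM His-tagged JH2 (residues 575-876) detected by 0.1 nM Tb-anti-His over 60 min. IC50 comes from 4-parameter fits of normalized 520/495 nm ratios.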

[1] = test system: Tyk2 kinase activity on STAT4; experiment: pSTAT4 cell assay (MSD, NK92 cells); type: cell-based; conditions: compounds 1 hr, stimulated 15 minutes
Method in brief: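 Cells natively expressing STAT4 and Tyk2 (NK92) are serum-starved to lower background phosphorylation, exposed to compound for 1 hr over a 10-point four-fold series starting at 10 μM, and stimulated with 30 ng/mL IL2 for 15 minutes. Phosphorylation is quantified on MSD with anti-STAT4 antibodies.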

T1 sequence (P29597 575-876): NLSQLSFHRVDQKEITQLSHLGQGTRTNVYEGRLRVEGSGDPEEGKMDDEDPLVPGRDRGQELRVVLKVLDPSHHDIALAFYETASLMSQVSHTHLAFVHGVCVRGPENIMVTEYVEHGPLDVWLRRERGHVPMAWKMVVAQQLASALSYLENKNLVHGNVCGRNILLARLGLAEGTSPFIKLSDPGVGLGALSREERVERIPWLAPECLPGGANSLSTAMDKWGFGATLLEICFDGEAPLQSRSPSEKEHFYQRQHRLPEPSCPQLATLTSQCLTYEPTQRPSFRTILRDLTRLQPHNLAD

SMILES | IC50 (JH2 domain of human Tyk2) [nM] | IC50 [1] [nM]
CC(=O)Nc1cc2c(cn1)C1(CC1)CN2c1cc(C)cc(N2CC(O)C(O)C2)n1 (stereo not shown) [Example 187, N-(1′-(6-(3,4-dihydroxypyrrolidin-1-yl)-4-methylpyridin-2-yl)-1′,2′-dihydrospiro[cyclopropane-1,3′-pyrrolo[3,2-c]pyridin]-6′-yl)acetamide] | 100 to 1000 | ≥ 1000
COC1CCCN(c2cc(C)cc(N3CC4(CC4)c4cnc(NC(C)=O)cc43)n2)C1 (stereo not shown) [Example 188, N-(1′-(6-(3-methoxypiperidin-1-yl)-4-methylpyridin-2-yl)-1′,2′-dihydrospiro[cyclopropane-1,3′-pyrrolo[3,2-c]pyridin]-6′-yl)acetamide] | 100 to 1000 | ≥ 1000
CC(=O)Nc1cc2c(cn1)C1(CC1)CN2c1cc(C)cc(N2CCC(O)C2)n1 (stereo not shown) [Example 189, N-(1′-(6-(3-hydroxypyrrolidin-1-yl)-4-methylpyridin-2-yl)-1′,2′-dihydrospiro[cyclopropane-1,3′-pyrrolo[3,2-c]pyridin]-6′-yl)acetamide] | 10 to 100 | ≥ 1000
CC(=O)Nc1cc2c(cn1)C1(CC1)CN2c1cc(C)cc(N(C)C)n1 [Example 190, N-(1′-(6-(dimethylamino)-4-methylpyridin-2-yl)-1′,2′-dihydrospiro[cyclopropane-1,3′-pyrrolo[3,2-c]pyridin]-6′-yl)acetamide] | 10 to 100 | ≥ 1000
COCCNc1cc(C)cc(N2CC3(CC3)c3cnc(NC(C)=O)cc32)n1 [Example 191, N-(1′-(6-((2-methoxyethyl)amino)-4-methylpyridin-2-yl)-1′,2′-dihydrospiro[cyclopropane-1,3′-pyrrolo[3,2-c]pyridin]-6′-yl)acetamide] | 100 to 1000 | ≥ 1000
CC(=O)Nc1cc2c(cn1)C1(CC1)CN2c1cc(C)cc(N2CCC(N(C)C)C2)n1 (stereo not shown) [Example 192, N-(1′-(6-(3-(dimethylamino)pyrrolidin-1-yl)-4-methylpyridin-2-yl)-1′,2′-dihydrospiro[cyclopropane-1,3′-pyrrolo[3,2-c]pyridin]-6′-yl)acetamide trifluoroacetate] | 100 to 1000 | ≥ 1000
CC(=O)Nc1cc2c(cn1)C1(CC1)CN2c1cc(C)cc(N2CC(O)C2)n1 [Example 193, N-(1′-(6-(3-hydroxyazetidin-1-yl)-4-methylpyridin-2-yl)-1′,2′-dihydrospiro[cyclopropane-1,3′-pyrrolo[3,2-c]pyridin]-6′-yl)acetamide] | 10 to 100 | ≥ 1000
CC(=O)Nc1cc2c(cn1)C1(CC1)CN2c1cc(C)cc(N2CC(C#N)C2)n1 [Example 194, N-(1′-(6-(3-cyanoazetidin-1-yl)-4-methylpyridin-2-yl)-1′,2′-dihydrospiro[cyclopropane-1,3′-pyrrolo[3,2-c]pyridin]-6′-yl)acetamide] | ≤ 10 | ≥ 1000
CC(=O)Nc1cc2c(cn1)C1(CC1)CN2c1cc(C)cc(N2CC(F)C2)n1 [Example 195, N-(1′-(6-(3-fluoroazetidin-1-yl)-4-methylpyridin-2-yl)-1′,2′-dihydrospiro[cyclopropane-1,3′-pyrrolo[3,2-c]pyridin]-6′-yl)acetamide] | 10 to 100 | ≥ 1000
CC(=O)Nc1cc2c(cn1)C1(CC1)CN2c1cc(C)cc(N2CC(C#N)(CF)C2)n1 [Example 196, N-(1′-(6-(3-cyano-3-(fluoromethyl)azetidin-1-yl)-4-methylpyridin-2-yl)-1′,2′-dihydrospiro[cyclopropane-1,3′-pyrrolo[3,2-c]pyridin]-6′-yl)acetamide] | 10 to 100 | 100 to 1000
CCC1(C#N)CN(c2cc(C)cc(N3CC4(CC4)c4cnc(NC(C)=O)cc43)n2)C1 [Example 197, N-(1′-(6-(3-cyano-3-ethylazetidin-1-yl)-4-methylpyridin-2-yl)-1′,2′-dihydrospiro[cyclopropane-1,3′-pyrrolo[3,2-c]pyridin]-6′-yl)acetamide] | 10 to 100 | ≥ 1000
CC(=O)Nc1cc2c(cn1)C1(CC1)CN2c1cc(C)cc(N2CC(OC(F)F)C2)n1 [Example 198, N-(1′-(6-(3-(difluoromethoxy)azetidin-1-yl)-4-methylpyridin-2-yl)-1′,2′-dihydrospiro[cyclopropane-1,3′-pyrrolo[3,2-c]pyridin]-6′-yl)acetamide] | 100 to 1000 | ≥ 1000
COCCC1(C#N)CN(c2cc(C)cc(N3CC4(CC4)c4cnc(NC(C)=O)cc43)n2)C1 [Example 199, N-(1′-(6-(3-cyano-3-(2-methoxyethyl)azetidin-1-yl)-4-methylpyridin-2-yl)-1′,2′-dihydrospiro[cyclopropane-1,3′-pyrrolo[3,2-c]pyridin]-6′-yl)acetamide] | 10 to 100 | ≥ 1000
CC(=O)Nc1cc2c(cn1)C1(CC1)CN2c1cc(C)cc(N2CC(C)(C#N)C2)n1 [Example 200, N-(1′-(6-(3-cyano-3-methylazetidin-1-yl)-4-methylpyridin-2-yl)-1′,2′-dihydrospiro[cyclopropane-1,3′-pyrrolo[3,2-c]pyridin]-6′-yl)acetamide] | 10 to 100 | 100 to 1000
CC(=O)Nc1cc2c(cn1)C1(CC1)CN2c1cc(C)cc(N2CC(C(F)F)C2)n1 [Example 201, N-(1′-(6-(3-(difluoromethyl)azetidin-1-yl)-4-methylpyridin-2-yl)-1′,2′-dihydrospiro[cyclopropane-1,3′-pyrrolo[3,2-c]pyridin]-6′-yl)acetamide trifluoroacetate] | 10 to 100 | ≥ 1000
CC(=O)Nc1cc2c(cn1)C1(CC1)CN2c1cc(C)cc(N2CC(C#N)(C(F)F)C2)n1 [Example 202, N-(1′-(6-(3-cyano-3-(difluoromethyl)azetidin-1-yl)-4-methylpyridin-2-yl)-1′,2′-dihydrospiro[cyclopropane-1,3′-pyrrolo[3,2-c]pyridin]-6′-yl)acetamide] | 10 to 100 | ≥ 1000
CC(=O)Nc1cc2c(cn1)C1(CC1)CN2c1cc(C)cc(N2CC(S(C)(=O)=O)C2)n1 [Example 203, N-(1′-(4-methyl-6-(3-(methylsulfonyl)azetidin-1-yl)pyridin-2-yl)-1′,2′-dihydrospiro[cyclopropane-1,3′-pyrrolo[3,2-c]pyridin]-6′-yl)acetamide] | 100 to 1000 | ≥ 1000
CCS(=O)(=O)C1CN(c2cc(C)cc(N3CC4(CC4)c4cnc(NC(C)=O)cc43)n2)C1 [Example 204, N-(1′-(6-(3-(ethylsulfonyl)azetidin-1-yl)-4-methylpyridin-2-yl)-1′,2′-dihydrospiro[cyclopropane-1,3′-pyrrolo[3,2-c]pyridin]-6′-yl)acetamide] | 100 to 1000 | ≥ 1000
CC(=O)Nc1cc2c(cn1)C1(CC1)CN2c1cc(C)cc(N2CC(C)(O)C2)n1 [Example 205, N-(1′-(6-(3-hydroxy-3-methylazetidin-1-yl)-4-methylpyridin-2-yl)-1′,2′-dihydrospiro[cyclopropane-1,3′-pyrrolo[3,2-c]pyridin]-6′-yl)acetamide] | 10 to 100 | ≥ 1000
CC(=O)Nc1cc2c(cn1)C1(CC1)CN2c1cc(C)cc(N2CCOCC2)n1 [Example 206, N-(1′-(4-methyl-6-morpholinopyridin-2-yl)-1′,2′-dihydrospiro[cyclopropane-1,3′-pyrrolo[3,2-c]pyridin]-6′-yl)acetamide] | 10 to 100 | 100 to 1000
